The record followed here is patent EP2365091A1, “Method of screening for HtrA protease inhibitors useful for prophylaxis and therapy of a bacterial infection” (Paul-Ehrlich-Institut, priority 2010, dated 2011).

Assay [1] concerns Hp. Description: Hp translocation through the intercellular space of confluent monolayers (confocal microscopy, filter CFU). Type of assay: cell-based, Helicobacter pylori. The method, then: (§1) Hp strains Hp26695 and P12 were cultured on agar plates containing 10% horse serum under microaerophilic conditions at 37°C for 48 hours. For infection, bacteria were harvested in PBS Dulbecco's medium, pH 7.4, added to the host cells at a multiplicity of infection (MOI) of 50 or 100 for the indicated time periods and monitored using an inverse phase-contrast microscope (model TS 100, INTAS). To quantify bacteria translocating through cellular monolayers, MKN-28 cells were grown to confluence on filters prior to infection with Hp for 48 h. Translocating Hp were cultured and CFU were counted. All experiments were repeated 3-4 times.
For immunofluorescence staining, cells were grown for 24 h on glass coverslips, then fixed (4% paraformaldehyde in PBS), and permeabilized (0.2% Triton X-100 in PBS). Immunostaining was performed using anti-E-Cadherin (cl. 36 detects the intracellular domain, BD Biosciences), anti-E-Cadherin (HecD-1 detects the extracellular domain), ZO-1 (Invitrogen), anti-CagA (Immunological and Biochemical Testsystems GmbH, Reutlingen, Germany), anti-β1-integrin and anti-Hp. Secondary antibodies were labeled with Alexa-488 or Alexa-546 (Invitrogen). Filamentous actin was detected with Alexa Fluor 546-conjugated phalloidin (Invitrogen). […] Samples were analyzed by confocal laser scanning microscopy using a Zeiss LSM 510 Meta confocal microscope. […]

The subject of assay [2] is Hp. Description: Hp adherence and viability, colony forming units after infection of MKN-28 cells. Type of assay: cell-based, Helicobacter pylori. On the procedure: For secretome analysis, Hp was grown in protein-free liquid brain heart infusion (BHI) medium (Merck) supplemented with β-cyclodextrin for 48 hours (Bumann et al., 2002). Supernatants of Hp BHI cultures were sterilized by filtration. Lysates of Hp were obtained by sonication in PBS containing 0.1% Triton X-100. To quantify colony forming units (CFU) of Hp, cells were infected with Hp in the presence or absence of HHI. After 16-24 h cells were washed twice with PBS, harvested in BHI supplemented with β-cyclodextrin and seeded on Hp plates. After 72 h, colonies were counted.

Assay [3] concerns TCF/LEF1. Description: TOPflash/FOPflash luciferase reporter gene experiment. Type of assay: cell-based, human. The note with it: MKN-28, Hp 24 h, 50 µM HHI (Fig. 5C). On the procedure:
MKN-28 cells were cultured in 24-well plates and grown to 60% confluence. Cells were transfected with 100 ng TOPflash or 100 ng FOPflash (Upstate, Millipore, Bad Schwalbach/Taunus, Germany) and 4 ng phRL Null. As a positive control, cells were co-transfected with 100 ng β-Catenin (β-Cat^S33A) or empty vector for 12 h using Gene Juice transfection reagent (Novagen, Merck, Darmstadt, Germany) as recommended by the manufacturer's instructions. Eighteen hours after transfection, cells were infected with Hp at an MOI of 50, or left untreated. In further approaches, cells were incubated with 50 ng/µl HtrA^wt or HtrA^S205A mutant. After 24 h, cells were harvested in 100 µl reporter lysis buffer (Promega) and luciferase activity was determined in a dual channel luminometer. Results were normalized for transfection efficiency of cotransfected renilla luciferase plasmid.

Assay [4] has as its system MKN-28 cells. Kind of assay: Cell aggregation assay. Type of assay: cell-based, human. Particulars: 50 ng/µl HtrAwt plus 100 µM HHI (Fig. 4E). The method, then:
For cell aggregation assays, 2 x 10^5 cells were trypsinized and seeded into BSA-coated 24-well plates, each well containing 500 µl of cell aggregation buffer (10 mM HEPES (pH 7.4), 150 mM NaCl, 0.7 mM CaCl2, 1% BSA, 0.01% trypsin). After stimulation at 37°C for 30 min on a rocking platform, cells were fixed in 500 µl of 4% paraformaldehyde for 20 min and observed using an inverse phase-contrast microscope.

Assay [5] relates to interleukin-8 (IL-8). Description: Interleukin-8 (IL-8) ELISA. Format: cell-based, human. Particulars: MKN-28, Hp 8 h, 16 h and 36 h, 100 µM HHI (Fig. 12B). The method, then: Determination of IL-8 release was performed by applying a commercially available IL-8 specific ELISA assay system (Bender Medsystems, eBioscience Inc., San Diegeo, CA, USA). In brief, MKN-28 cells were incubated with Hp 8-36 h. Cell culture supernatants were collected, centrifuged, and stored at -80°C for subsequent IL-8 quantification. The IL-8 release was determined as recommend by the manufacturer's instructions.
(An ELISA detects its analyte on a solid surface through an enzyme-linked reagent.)

The test system of assay [6] is MCF-7. Description: In-situ immunofluorescence of E-Cadherin in Hp-infected cells. Type of assay: cell-based, human. The note with it: MCF-7, Hp 16 h, 100 µM HHI (Fig. 5A). The method, then:
(§2) For immunofluorescence staining, cells were grown for 24 h on glass coverslips, then fixed (4% paraformaldehyde in PBS), and permeabilized (0.2% Triton X-100 in PBS). Immunostaining was performed using anti-E-Cadherin (cl. 36 detects the intracellular domain, BD Biosciences), anti-E-Cadherin (HecD-1 detects the extracellular domain), ZO-1 (Invitrogen), anti-CagA (Immunological and Biochemical Testsystems GmbH, Reutlingen, Germany), anti-β1-integrin and anti-Hp. Secondary antibodies were labeled with Alexa-488 or Alexa-546 (Invitrogen). Filamentous actin was detected with Alexa Fluor 546-conjugated phalloidin (Invitrogen). For nuclei staining, 4',6-diamin-2-phenylin-dol-dihydrochloride (DAPI, Roche) was used as recommended by the manufacturer's instructions. Samples were analyzed by confocal laser scanning microscopy using a Zeiss LSM 510 Meta confocal microscope. Images were further processed using Corel Photopaint.

The subject of assay [7] is MKN-28 cells. Kind of assay: Co-immunoprecipitation of β-Catenin and p120ctn in Hp-infected cells. Format: cell-based, human. The note with it: Hp 6 h, 100 µM HHI (Fig. 5B). On the procedure: Interaction between β-Catenin and p120^ctn was analyzed by co-immunoprecipitation studies. Cells were lysed and β-Catenin and p120^ctn were immunoprecipitated from cell lysates. Immobilized protein complexes were washed three times with lysis buffer, boiled in Laemmli buffer, separated by SDS-PAGE, and blotted on membranes.

Assay [8] relates to MKN-28 cells. Description: Hp-induced ectopic E-Cadherin shedding in infected cells (Western blot of supernatants and lysates). Format: cell-based, human. Particulars: 100 µM HHI. The method, then: The human gastric adenocarcinoma cell line MKN-28 was grown in RPMI1640 medium (Biochrom, Berlin, Germany) and human breast cancer cells (MCF-7) in DMEM medium (Biochrom) containing 4 mM glutamine (Invitrogen, Karlsruhe, Germany]), and 10% FCS (Biowest, Nuaillé, France) in a humidified 5% CO2 (MKN-28) or 10% CO2 (MCF-7) atmosphere at 37°C. Cells were seeded in tissue culture plates 48 hours before infection and grown to confluence. 1-2 h hours prior to infection, medium was replaced by fresh serum-free media. Where indicated, cells were incubated with indicated concentrations of HHI or MMP inhibitor II (blocks MMP1, MMP3, MMP7 and MMP9) (Calbiochem, Merck , Darmstadt, Germany).
as §1, with “times. […]” for “times.”
On the technique in general: In western blotting, separated proteins are transferred to a membrane and probed.

For assay [9], the system named is HtrA. Kind of assay: In vitro cleavage of recombinant E-Cadherin by HtrA (Western blot). Type of assay: biochemical, Helicobacter pylori. The note with it: 100 ng recombinant E-Cadherin, 100 ng/µl HtrA, 16 h. The method, then:
(§3) For in vitro cleavage studies, recombinant E-Cadherin, EGFR and JAM chimera, IgA or Casein, (R&D Systems, Wiesbaden, Germany) were incubated with HtrA^wt, HtrA^S205A or MMP7 in 50 mM HEPES (pH 7.4) at 37°C for 16 h. Where indicated, HHI or MMP inhibitor II were added. Reactions were stopped by boiling in Laemmli buffer, followed by 8% SDS-PAGE and Western blotting.

The test system of assay [10] is β1-integrin. Kind of assay: Confocal microscopy of phospho-CagA and β1-integrin co-localization. Particulars: Hp-infected cells, preincubation with 100 µM HHI (Fig. 7C). Format: cell-based. On the procedure:
as §2

Assay [11] has as its target T1, MMP-7 (Homo sapiens, UniProt P09237).
T1 sequence (P09237 95-267): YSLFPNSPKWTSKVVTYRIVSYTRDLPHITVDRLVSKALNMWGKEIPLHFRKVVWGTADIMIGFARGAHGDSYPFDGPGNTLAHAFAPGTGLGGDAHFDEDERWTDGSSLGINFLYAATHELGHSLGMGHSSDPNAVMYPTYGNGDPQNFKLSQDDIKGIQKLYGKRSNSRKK
Kind of assay: In vitro cleavage of recombinant E-Cadherin by MMP-7 (Western blot). Type of assay: biochemical. Particulars: 5 ng/µl MMP-7, 16 h, 100 µM HHI (Fig. 11E). The method, then: as §3

Assay [12] concerns CagA. Kind of assay: CagA injection and phosphorylation in infected monolayers (Western blot). Format: cell-based, Helicobacter pylori. Particulars: MKN-28 monolayers. The method, then:
Cells were harvested in lysis buffer (20 mM Tris-HCl, pH 7.5, 1 mM ETDA, 100 mM NaCl, 1% Triton X-100, 0.5 % sodium deoxycholate, 0.1% SDS, 1 x complete protease inhibitors (Roche, Basel, Switzerland), 1 mM Na3VO4, 1 mM sodium molybdate, 20 mM NaF, 10 mM sodium pyrophosphate, 20 mM β-glycerophosphate) and separated by SDS-PAGE. Proteins were transferred onto PVDF membranes, blocked with RotiBlock (Roth, Karlsruhe, Germany), and probed with anti-E-Cadherin cl. 36 (detects intracellular E-Cadherin domain). To detect CTF1 and CTF2 by Western blots an anti-E-Cadherin polyclonal antibody from Cell Signaling Technologies , Danvers, MA, USA] was used. Quantification of CTF and NTF fragments was performed using the Fusion FX-7 image analyzer and Bio-1D analysis software (Vilber Lourmat Deutschland GmbH, Eberhardzell, Germany). Monoclonal antibodies HecD1 and H-108 against the extracellular domain of E-Cadherin (NTF) were obtained from Calbiochem, Merck, Darmstadt, Germany and Santa Cruz, Santa Cruz, CA, USA, respectively. Expression of Occludin, ZO-1 (Invitrogen), JAM1, β-Catenin, p120^ctn (BD Biosciences, New Jersey, USA), ADAM10, EGFR (Santa Cruz), GAPDH (Abcam, Cambridge, UK), β-Actin (Sigma), CagA (Aalto Bio Reagents Ltd., Dublin, Ireland) was analyzed using specific antibodies. […]

Structures are written as SMILES. “Also recorded” adds a separate entry of the source.

For the molecule `CCOc1ccc2nc(NC(=O)CSc3nnc(-c4ccc(S(=O)(=O)N5CCCC5)cc4)o3)sc2c1` [HHI], the “Hp invasion through the intercellular space of confluent MKN-28 cells growing on filters” value in [1] (100 µM HHI, Hp 48 h, CFU counted, p = 0.01 (Fig. 6B)) is reported as “significantly inhibited”. Besides, in [1] (MKN-28 monolayers, confocal microscopy, 48 h, 100 µM HHI (Fig. 6A)), the “number of translocating bacteria in intercellular spaces” value is “greatly reduced”. For the same molecule, the “Hp adherence and Hp viability” value in assay [2] (100 µM HHI (Fig. 11C)) is reported as “could be excluded; also recorded: not affecting”. In assay [2] (100 µM HHI, 16 h and 24 h infection, colonies counted after 72 h (Fig. 11C)), the “relative CFU colony forming units (CFU)” value is listed as “no significant difference”. Moreover, the “Hp-induced luciferase activity (TOP/FOP)” value in assay [3] is recorded as “unaffected”. Moreover, the “E-Cadherin-mediated cell aggregation of HtrAwt-treated cells” value in assay [4] is recorded as “did not form aggregates, unless HHI was also added”. Further, the “T4SS-dependent secretion of interleukin-8 (IL-8) of Hp-infected cells” value in [5] is listed as “unaffected”. Moreover, the “Hp-induced loss of E-Cadherin-dependent intercellular adhesion” value in [6] was “blocks; also recorded: efficiently blocked”. Further, the “loss of β-Catenin in the precipitated p120ctn immunocomplex upon Hp infection” value in assay [7] is recorded as “not reverted”. Also, the “secretion of HtrA into the infected cell supernatant” value in assay [8] (16 and 24 h (Fig. 4D)) is recorded as “could be excluded”. Also, the “Hp-induced ectopic E-Cadherin cleavage in infected MKN-28 cells” value in [8] (Hp infection 16 and 24 h (Fig. 4D)) was “clearly inhibited”. In assay [9], the “HHI concentration sufficient to partly block HtrA-mediated E-Cadherin cleavage” value came to 10 µM and the “HHI concentration that blocked cleavage completely” value is recorded as 30 µM. Also, in [10], the “co-localization of phospho-CagA with β1-integrin at the basolateral membrane” value is on record as “efficiently prevented”. The “MMP7-mediated E-Cadherin cleavage activity” value in assay [11] is “did not affect”. Further, the “amount of total CagA” value in assay [12] (100 µM HHI preincubation (Fig. 7A)) is reported as “not altered”. Also, in assay [12] (100 µM HHI preincubation, 16 h and 24 h (Fig. 7A)), the “injected phospho-CagA in Hp-infected cells” value is “decreased”.
